How the values were obtained:
[1] = biological target: T1, ATP-binding cassette sub-family C member 2 (Rattus norvegicus, UniProt Q63120); test: TP_TRANSPORTER: Northern blot from H4IIE rat hepatoma cells; type: functional, cell-based
[2] = biological target: T1, ATP-binding cassette sub-family C member 2; test: TP_TRANSPORTER: Western blot, H4IIE rat hepatoma cells; type: functional, cell-based

T1 sequence (Q63120 whole entry): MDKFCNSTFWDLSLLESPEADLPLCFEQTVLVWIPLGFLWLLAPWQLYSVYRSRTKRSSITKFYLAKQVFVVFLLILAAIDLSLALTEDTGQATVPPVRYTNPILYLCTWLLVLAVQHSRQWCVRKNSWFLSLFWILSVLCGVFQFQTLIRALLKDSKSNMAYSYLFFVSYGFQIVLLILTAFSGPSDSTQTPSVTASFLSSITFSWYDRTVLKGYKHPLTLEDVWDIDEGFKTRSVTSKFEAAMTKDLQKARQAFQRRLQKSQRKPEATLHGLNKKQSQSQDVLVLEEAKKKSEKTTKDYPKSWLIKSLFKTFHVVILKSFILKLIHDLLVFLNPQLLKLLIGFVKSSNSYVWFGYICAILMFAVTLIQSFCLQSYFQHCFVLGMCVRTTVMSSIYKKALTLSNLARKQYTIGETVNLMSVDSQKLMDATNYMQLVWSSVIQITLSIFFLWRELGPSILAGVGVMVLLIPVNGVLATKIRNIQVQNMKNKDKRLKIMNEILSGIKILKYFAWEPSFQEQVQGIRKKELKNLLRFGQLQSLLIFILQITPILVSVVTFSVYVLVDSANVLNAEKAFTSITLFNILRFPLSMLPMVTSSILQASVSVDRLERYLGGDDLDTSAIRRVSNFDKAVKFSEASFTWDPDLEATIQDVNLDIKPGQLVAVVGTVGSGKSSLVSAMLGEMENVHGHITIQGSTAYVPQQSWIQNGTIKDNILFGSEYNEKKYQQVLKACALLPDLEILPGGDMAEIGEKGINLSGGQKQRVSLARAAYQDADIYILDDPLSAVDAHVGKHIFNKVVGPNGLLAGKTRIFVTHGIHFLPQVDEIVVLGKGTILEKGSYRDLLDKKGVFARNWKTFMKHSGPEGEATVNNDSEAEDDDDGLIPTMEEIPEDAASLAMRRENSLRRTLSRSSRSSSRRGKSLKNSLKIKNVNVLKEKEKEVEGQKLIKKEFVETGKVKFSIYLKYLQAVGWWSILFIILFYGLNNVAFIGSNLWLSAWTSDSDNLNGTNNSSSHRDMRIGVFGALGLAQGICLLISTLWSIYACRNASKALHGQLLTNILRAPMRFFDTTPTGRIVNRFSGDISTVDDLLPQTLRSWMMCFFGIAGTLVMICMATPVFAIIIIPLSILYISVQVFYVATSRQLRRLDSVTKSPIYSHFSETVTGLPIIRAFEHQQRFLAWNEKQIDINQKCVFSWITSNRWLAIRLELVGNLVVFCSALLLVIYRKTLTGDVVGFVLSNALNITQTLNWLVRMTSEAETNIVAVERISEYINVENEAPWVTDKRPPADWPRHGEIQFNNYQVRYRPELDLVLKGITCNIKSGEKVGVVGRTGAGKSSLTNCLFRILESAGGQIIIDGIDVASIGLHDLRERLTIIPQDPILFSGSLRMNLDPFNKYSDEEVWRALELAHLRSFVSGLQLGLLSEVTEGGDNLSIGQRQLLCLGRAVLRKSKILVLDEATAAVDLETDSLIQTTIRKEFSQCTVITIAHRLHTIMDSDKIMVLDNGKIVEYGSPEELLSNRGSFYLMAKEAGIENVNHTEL

SMILES | Activity [1] | Activity [2]
CCC1(c2ccccc2)C(=O)NC(=O)NC1=O [PHENOBARBITAL] | inducer [+] | inducer [+]
C#C[C@]1(O)CC[C@H]2[C@@H]3CCc4cc(O)ccc4[C@H]3CC[C@@]21C [ETHINYL ESTRADIOL] | inducer [+] | inducer [+]

Source: ChEMBL document CHEMBL2074360, “Sequence analysis and functional characterization of the 5'-flanking region of the rat multidrug resistance protein 2 (mrp2) gene” (Biochem Biophys Res Commun, 1998)
